Numbers after ± are expanded uncertainties.
Columns and labels:
[1] = Crystal; DTA
[2] = mn = molality of the nth substance listed, in mol/kg; settings: 99.6 kPa, Liquid, Vibrating tube method

CCN1C(=O)N(CC)C2NC(=O)NC21 (centres undefined) gave a Normal melting temperature [1] of 327.64 ± 2 °C.

In the case of CN1C(=O)N(C)C2NC(=O)NC21 (centres undefined), the Normal melting temperature [1] is reported as 253.28 ± 2 °C.

CN1C(=O)N(C)C2NC(=O)NC21 (centres undefined) + O showed a mass density ([2]; 278.15 K, m1 = 0.06671) of 1003.16 ± 0.11 kg/m3, a mass density ([2]; 278.15 K, m1 = 0.0951) of 1004.51 ± 0.11 kg/m3 and a mass density ([2]; 278.15 K, m1 = 0.1319) of 1006.28 ± 0.11 kg/m3. For the same compound, the mass density ([2]; 278.15 K, m1 = 0.169) was 1008.03 ± 0.11 kg/m3, the mass density ([2]; 278.15 K, m1 = 0.1987) was 1009.43 ± 0.11 kg/m3 and the mass density ([2]; 278.15 K, m1 = 0.2323) was 1011.02 ± 0.11 kg/m3. The mass density ([2]; 278.15 K, m1 = 0.2679) was 1012.68 ± 0.11 kg/m3, the mass density ([2]; 278.15 K, m1 = 0.3038) was 1014.37 ± 0.11 kg/m3 and the mass density ([2]; 278.15 K, m1 = 0.3326) was 1015.72 ± 0.11 kg/m3. For the same compound, the mass density ([2]; 278.15 K, m1 = 0.3594) was 1016.96 ± 0.11 kg/m3, the mass density ([2]; 278.15 K, m1 = 0.3919) was 1018.47 ± 0.11 kg/m3 and the mass density ([2]; 288.15 K, m1 = 0.06671) was 1002.21 ± 0.11 kg/m3. It also gave a mass density ([2]; 288.15 K, m1 = 0.0951) of 1003.52 ± 0.11 kg/m3, a mass density ([2]; 288.15 K, m1 = 0.1319) of 1005.23 ± 0.11 kg/m3 and a mass density ([2]; 288.15 K, m1 = 0.169) of 1006.93 ± 0.11 kg/m3. The mass density ([2]; 288.15 K, m1 = 0.1987) was 1008.31 ± 0.11 kg/m3, the mass density ([2]; 288.15 K, m1 = 0.2323) was 1009.84 ± 0.11 kg/m3 and the mass density ([2]; 288.15 K, m1 = 0.2679) was 1011.46 ± 0.11 kg/m3. It also gave a mass density ([2]; 288.15 K, m1 = 0.3038) of 1013.1 ± 0.11 kg/m3, a mass density ([2]; 288.15 K, m1 = 0.3326) of 1014.41 ± 0.11 kg/m3 and a mass density ([2]; 288.15 K, m1 = 0.3594) of 1015.62 ± 0.11 kg/m3. It also gave a mass density ([2]; 288.15 K, m1 = 0.3919) of 1017.09 ± 0.11 kg/m3, a mass density ([2]; 298.15 K, m1 = 0.06671) of 1000.08 ± 0.11 kg/m3 and a mass density ([2]; 298.15 K, m1 = 0.0951) of 1001.37 ± 0.11 kg/m3. The mass density ([2]; 298.15 K, m1 = 0.1319) was 1003.04 ± 0.11 kg/m3, the mass density ([2]; 298.15 K, m1 = 0.169) was 1004.72 ± 0.11 kg/m3 and the mass density ([2]; 298.15 K, m1 = 0.1987) was 1006.04 ± 0.11 kg/m3. For the same compound, the mass density ([2]; 298.15 K, m1 = 0.2323) was 1007.54 ± 0.11 kg/m3, the mass density ([2]; 298.15 K, m1 = 0.2679) was 1009.13 ± 0.11 kg/m3 and the mass density ([2]; 298.15 K, m1 = 0.3038) was 1010.73 ± 0.11 kg/m3. The mass density ([2]; 298.15 K, m1 = 0.3326) was 1012.01 ± 0.11 kg/m3, the mass density ([2]; 298.15 K, m1 = 0.3594) was 1013.19 ± 0.11 kg/m3 and the mass density ([2]; 298.15 K, m1 = 0.3919) was 1014.62 ± 0.11 kg/m3. It also gave a mass density ([2]; 308.15 K, m1 = 0.06671) of 997.02 ± 0.11 kg/m3, a mass density ([2]; 308.15 K, m1 = 0.0951) of 998.281 ± 0.11 kg/m3 and a mass density ([2]; 308.15 K, m1 = 0.1319) of 999.917 ± 0.11 kg/m3. It also gave a mass density ([2]; 308.15 K, m1 = 0.169) of 1001.55 ± 0.11 kg/m3, a mass density ([2]; 308.15 K, m1 = 0.1987) of 1002.87 ± 0.11 kg/m3 and a mass density ([2]; 308.15 K, m1 = 0.2323) of 1004.34 ± 0.11 kg/m3. For the same compound, the mass density ([2]; 308.15 K, m1 = 0.2679) was 1005.9 ± 0.11 kg/m3, the mass density ([2]; 308.15 K, m1 = 0.3038) was 1007.47 ± 0.11 kg/m3 and the mass density ([2]; 308.15 K, m1 = 0.3326) was 1008.71 ± 0.11 kg/m3. For the same compound, the mass density ([2]; 308.15 K, m1 = 0.3594) was 1009.88 ± 0.11 kg/m3, the mass density ([2]; 308.15 K, m1 = 0.3919) was 1011.29 ± 0.11 kg/m3 and the mass density ([2]; 318.15 K, m1 = 0.06671) was 993.153 ± 0.11 kg/m3. It also gave a mass density ([2]; 318.15 K, m1 = 0.0951) of 994.389 ± 0.11 kg/m3, a mass density ([2]; 318.15 K, m1 = 0.1319) of 995.999 ± 0.11 kg/m3 and a mass density ([2]; 318.15 K, m1 = 0.169) of 997.607 ± 0.11 kg/m3. For the same compound, the mass density ([2]; 318.15 K, m1 = 0.1987) was 998.902 ± 0.11 kg/m3, the mass density ([2]; 318.15 K, m1 = 0.2323) was 1000.35 ± 0.11 kg/m3 and the mass density ([2]; 318.15 K, m1 = 0.2679) was 1001.88 ± 0.11 kg/m3. It also gave a mass density ([2]; 318.15 K, m1 = 0.3038) of 1003.42 ± 0.11 kg/m3, a mass density ([2]; 318.15 K, m1 = 0.3326) of 1004.65 ± 0.11 kg/m3 and a mass density ([2]; 318.15 K, m1 = 0.3594) of 1005.79 ± 0.11 kg/m3. It also gave a mass density ([2]; 318.15 K, m1 = 0.3919) of 1007.17 ± 0.11 kg/m3.

O [water] + CCN1C(=O)N(CC)C2NC(=O)NC21 gave a mass density ([2]; 278.15 K, m2 = 0) of 999.964 ± 0.11 kg/m3.

O [water] + CN1C(=O)N(C)C2NC(=O)NC21 showed a mass density ([2]; 278.15 K, m2 = 0) of 999.965 ± 0.11 kg/m3.

— the NIST ThermoML archive (doi:10.1016/j.jct.2015.05.028)
